Earlier results in paper PMC9669016, “First-in-human phase Ia study of the PI3Kα inhibitor CYH33 in patients with solid tumors” (Nature Communications, 2022).

Parameters: method as in Investigator's Brochure (IB) 12
Conditions: ref Investigator's Brochure (IB) 12, cited from earlier work

SMILES: COC(=O)Nc1cc(C(F)(F)F)c(-c2nc(N3CCOCC3)c3cc(CN4CCN(S(C)(=O)=O)CC4)cn3n2)cn1 [CYH33, methyl (5-(6-((4-(methylsulfonyl)piperazin-1-yl)methyl)−4-morpholinopyrrolo[2,1-f][1,2,4]triazin-2-yl)−4-(trifluoromethyl)pyridin-2-yl)carbamate]
- exposure in tissues relative to plasma (liver, adrenal gland, digestive tract, pancreas, kidney, spleen, ovaries): more than 4 times
- concentration of parent drug at 72 h after administration relative to peak concentration: 0.5%
- distribution into the red blood cells: basically not distributed
- exposure in brain tissue relative to plasma: approximately 20%
- exposure in tissues, female rats relative to male rats (higher): 7 - 18 fold
